Laboratory results from ChEMBL document CHEMBL4138141, “Rapid generation of a novel DPP-4 inhibitor with long-acting properties: SAR study and PK/PD evaluation” (Eur J Med Chem, 2017).

Experiments:
[1] = Half life in rat liver microsomes at […] by LC-MS/MS analysis; format: ADME, microsome
[2] = Half life in human liver microsomes at […] by LC-MS/MS analysis; format: ADME, microsome
[3] = Tmax in Sprague-Dawley rat at 25 mg/kg, po or 5 mg/kg, iv administered as single dose by LC-MS/MS analysis; format: ADME, organism-based; conditions: in vivo
[4] = Half life in Sprague-Dawley rat at 25 mg/kg, po administered as single dose by LC-MS/MS analysis; format: ADME, organism-based; conditions: in vivo
Rattus norvegicus [5] = experiment: AUC (0 to t) in Sprague-Dawley rat at 25 mg/kg, po administered as single dose by LC-MS/MS analysis; format: ADME, organism-based; conditions: in vivo
[6] = Apparent volume of distribution during terminal phase in Sprague-Dawley rat at 25 mg/kg, po or 5 mg/kg, iv administered as single dose by LC-MS/MS analysis; format: ADME, organism-based; conditions: in vivo, read-out: Vz/F
Rattus norvegicus [7] = experiment: Oral bioavailability in Sprague-Dawley rat at 25 mg/kg administered as single dose by LC-MS/MS analysis; format: ADME, organism-based; conditions: in vivo
Rattus norvegicus [8] = experiment: Clearance in Sprague-Dawley rat at 25 mg/kg, po or 5 mg/kg, iv administered as single dose by LC-MS/MS analysis; format: ADME, organism-based; conditions: in vivo
[9] = Metabolic stability in dog liver microsomes assessed as parent compound remaining at […] incubated for 5 mins measured up to 60 mins by LC-MS/MS analysis; format: ADME, Canis lupus familiaris, microsome; conditions: read-out: Stability
[10] = Metabolic stability in monkey liver microsomes assessed as parent compound remaining at […] incubated for 5 mins measured up to 60 mins by LC-MS/MS analysis; format: ADME, Macaca mulatta, microsome; conditions: rhesus monkey, read-out: Stability
[11] = Metabolic stability in rat liver microsomes assessed as parent compound remaining at […] incubated for 5 mins measured up to 60 mins by LC-MS/MS analysis; format: ADME, microsome; conditions: read-out: Stability
[12] = Metabolic stability in mouse liver microsomes assessed as parent compound remaining at […] incubated for 5 mins measured up to 60 mins by LC-MS/MS analysis; format: ADME, microsome; conditions: read-out: Stability
[13] = Metabolic stability in human liver microsomes assessed as parent compound remaining at […] incubated for 5 mins measured up to 60 mins by LC-MS/MS analysis; format: ADME, microsome; conditions: read-out: Stability

half-life [1]	half-life [2]	SMILES	other results
3.28 h	> 3.33 h	CS(=O)(=O)c1ccccc1-c1c[nH]c2c(=O)n(Cc3cc(F)ccc3C#N)c(N3CCC[C@@H](N)C3)nc12	–
> 1 h	3.33 h	N#Cc1ccc(F)cc1Cn1c(N2CCC[C@@H](N)C2)nc2cc[nH]c2c1=O	Tmax [3]: 0.14 h; half-life [4]: 5.46 h; AUCt (Rattus norvegicus [5]): 1880 ng·h/mL; Vd/F [6]: 106 L/kg; F (Rattus norvegicus [7]): 10.6%; CL (Rattus norvegicus [8]): 222 mL/min/kg
1.59 h	> 3.33 h	CS(=O)(=O)c1ccc(-c2c[nH]c3c(=O)n(Cc4cc(F)ccc4C#N)c(N4CCC[C@@H](N)C4)nc23)c(F)c1	–
1.2 h	3.01 h	N#Cc1ccc(F)cc1Cn1c(N2CCC[C@@H](N)C2)nc2c(-c3ccc(F)cc3)c[nH]c2c1=O	–
> 3.33 h	0.722 h	CC(C)S(=O)(=O)c1ccc(-c2c[nH]c3c(=O)n(Cc4cc(F)ccc4C#N)c(N4CCC[C@@H](N)C4)nc23)cc1	–
0.783 h	2.67 h	N#Cc1ccc(F)cc1Cn1c(N2CCC[C@@H](N)C2)nc2c(-c3ccsc3)c[nH]c2c1=O	Tmax [3]: 2.33 h; half-life [4]: 7.89 h; AUCt (Rattus norvegicus [5]): 2920 ng·h/mL; Vd/F [6]: 104 L/kg; F (Rattus norvegicus [7]): 33.4%; CL (Rattus norvegicus [8]): 147 mL/min/kg
0.625 h	2.21 h	N#Cc1ccc(F)cc1Cn1c(N2CCC[C@@H](N)C2)nc2c(Br)c[nH]c2c1=O	–
1.65 h	> 3.33 h	CS(=O)(=O)c1cccc(-c2c[nH]c3c(=O)n(Cc4cc(F)ccc4C#N)c(N4CCC[C@@H](N)C4)nc23)c1	–
0.838 h	1.64 h	N#Cc1ccc(F)cc1Cn1c(N2CCC[C@@H](N)C2)nc2c(F)c[nH]c2c1=O	–
> 3.33 h	> 3.33 h	N#Cc1ccc(F)cc1Cn1c(N2CCC[C@@H](N)C2)nc2c(-c3ccc(S(N)(=O)=O)cc3)c[nH]c2c1=O	–
2.78 h	> 3.33 h	CS(=O)(=O)c1ccc(-c2c[nH]c3c(=O)n(Cc4cc(F)ccc4C#N)c(N4CCC[C@@H](N)C4)nc23)cc1F	–
> 3.33 h	> 3.33 h	CS(=O)(=O)c1ccc(-c2c[nH]c3c(=O)n(Cc4cc(F)ccc4C#N)c(N4CCC[C@@H](N)C4)nc23)cc1	–
0.609 h	0.585 h	N#Cc1ccc(F)cc1Cn1c(N2CCC[C@@H](N)C2)nc2c(-c3cccs3)c[nH]c2c1=O	–
> 3.33 h	> 3.33 h	Cn1c(=O)cc(N2CCC[C@@H](N)C2)n(Cc2cc(F)ccc2C#N)c1=O [TRELAGLIPTIN]	remaining at 60 min [9]: > 80%; Tmax [3]: 0.7 h; half-life [4]: 5.13 h; AUCt (Rattus norvegicus [5]): 6820 ng·h/mL; Vd/F [6]: 48.2 L/kg; remaining at 60 min [10]: > 80%; remaining at 60 min [11]: > 80%; F (Rattus norvegicus [7]): 46.9%; CL (Rattus norvegicus [8]): 128 mL/min/kg; remaining at 60 min [12]: > 80%; remaining at 60 min [13]: > 80%
